Values joined by “and” are separate entries in the source; they are usually repeats but may differ in a detail not shown here. Equal values may be shown once.
What was measured:
[1] = test system: HBV replication (HBV plus-polarity DNA strand); assay: HBV replication inhibition, strand preferential qPCR in hepDES19 cells; type: cell-based, hepatitis B virus; settings: for EC50: 72 h exposure, HBV plus-polarity strand suppression, highest concentration tested 100 µM, mean ± SD, read-out: HepDES19 EC50
Method: HBV replication inhibition was measured in hepDES19 cells following 72 h compound exposure without compound replenishment. EC50 values were determined by HBV plus-polarity strand suppression using a strand preferential qPCR assay, as described previously ([28]). Three or more replicate values were obtained on different days.

[2] = Parallel artificial membrane permeability assay (PAMPA); type: in vitro ADME
Method: Compound Papp values were determined by normalizing the experimental compound absorbance to the compounds’ absorbances at equilibrium, membrane porosity, buffer volume, and time (s). Two or more replicate assays were obtained on separate days for each pH.

CYP3A4 mRNA expression = assay: CYP3A4 induction, RT-qPCR in HepG2 cells; settings: 10 µM, 24 or 48 h, normalized to GAPDH and DMSO
Method: HepG2 cells were seeded on 12-well, tissue-culture-treated plates (Sarstedt) at 2.5 × 10^5 cells/well for 24 h. Cells were treated with 10 µM compound or 1% DMSO for 48 h with replenishment at 24 h. Cells were rinsed with PBS and lysed at 0, 24, and 48 h using TRI Reagent (Sigma Aldrich). […] Cellular DNA was degraded using DNase I (Invitrogen), according to the manufacturer’s instructions.
Complementary DNA (cDNA) synthesis employed the ProtoScript II First Strand cDNA Synthesis Kit (New England Biolabs) according to the manufacturer’s instructions with an additional incubation step at 25°C for 5 min. Reverse transcriptase-qPCR (RT-qPCR) was performed using a Quantstudio 5 (Thermo Fisher) in a final reaction volume of 20 µL with 4 µL cDNA template, 2× KAPA probe force master mix (Roche), 300 nM probe, and 100 nM forward and reverse primer. CYP3A4 expression was determined by normalizing the experimental sample cycle threshold values to DMSO-treated wells. GAPDH was used as a housekeeping gene.

plasma proteins = assay: Plasma protein binding, rapid equilibrium dialysis; type: in vitro ADME, bovine; settings: 10 µM compound, DMEM-F12 with 10% FBS (0.25 mg/mL BSA), 4 h, 37°C
Method: Plasma protein binding was performed using the Pierce rapid equilibrium dialysis device (Thermo Fisher) per the manufacturer’s instructions, as described ([27]). Briefly, the sample wells contained DMEM-F12 supplemented with 10% FBS spiked with 10 µM compound, and the buffer wells contained phosphate-buffered saline (PBS). The plate was incubated for 4 h at 37°C with shaking, after which 50 µL was retrieved from the buffer and sample wells and added to ice-cold acetonitrile and the internal standard described above. Samples were matrix-matched with PBS supplemented with 10% FBS or PBS alone, respectively, and centrifuged at 4,000 × g for 5 min to pellet plasma proteins. The supernatants were analyzed by LCMS/MS and percent compound bound was determined, as described previously ([27]).

[3] = Solubility limit, turbidimetric assay; type: physicochemical; settings: upper limit 200 µM
Method: Solubility limits were determined by a turbidimetric assay, as described ([27]), with the solubility limit being defined as the compound concentration where light scattering began to rise. Two or more replicate assays were performed for each compound at each pH on different days.

HepDES19 cells = settings: read-out: HepDES19 CC50; 72 h, MTS; highest concentration tested 100 µM; mean ± SD
Method: HepDES19 cells were plated on 96-well tissue culture-treated plates (Greiner) at 1.0 × 10^4 cells per well and incubated for 48 h. Cells were treated with titrated concentrations of compound or 1% DMSO vehicle for 72 h, and cellular viability was measured by 3-(4,5-dimethylthiazol-2-yl)−5-(3-carboxymethoxyphenyl)−2-(4-sulfophenyl)−2H-tetrazolium (MTS) assays, as described previously ([20]). […] Three or more replicate assays were done on different days.

[4] = target: T1, human ribonuclease H1 (huRNase H1) (Homo sapiens, UniProt O60930); assay: Human RNase H1 inhibition, fluorescent biochemical assay
T1 construct: made in house; host or cells: Escherichia coli
T1 sequence (O60930 1-286): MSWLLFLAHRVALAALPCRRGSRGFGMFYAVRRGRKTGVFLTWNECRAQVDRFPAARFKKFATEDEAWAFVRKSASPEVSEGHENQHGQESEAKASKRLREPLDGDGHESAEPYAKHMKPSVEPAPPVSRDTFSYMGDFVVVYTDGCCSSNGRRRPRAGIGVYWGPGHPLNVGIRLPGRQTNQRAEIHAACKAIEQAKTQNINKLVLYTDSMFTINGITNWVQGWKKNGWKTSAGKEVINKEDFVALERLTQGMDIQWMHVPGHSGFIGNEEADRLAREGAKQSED
Method: Recombinant human ribonuclease H1 (huRNase H1) was expressed in Escherichia coli and purified by nickel affinity chromatography, as described previously ([30]). […] The heteroduplex substrate was prepared, as described by Ponzar et al. ([30]). Reactions were initiated by the addition of MgCl2 (5 mM final) and were performed on a Biotek Synergy HTX multi-mode plate reader at 28°C.
Maximum rates of fluorescence increase were calculated using the Biotek Gen5 v3.15 software and percentage activity was determined for each compound concentration by subtracting rates from no enzyme reactions and normalizing to DMSO reactions. […] Reactions were performed at least three times on separate days.

MDCK-MDR1 cells = assay: MDCK-MDR1 permeability assay; type: in vitro ADME; settings: 10 µM compound, 2 h; for Efflux Ratio (Papp B-A/A-B): MDCK-MDR1 cells, actively effluxed if >2
Method: MDCK-MDR1 cells were seeded on 96-well, high protein binding immobilon-P membrane plates (Millipore Sigma) at 2.4 × 10^4 cells per well for 4 days. Media were then decanted, and the cells were equilibrated with Hanks balanced salt solution (HBSS) supplemented with 10 mM CaCl2 and 1 mM MgCl2 for 1 h. Compound (10 µM) was then added to the apical side to assess active transport and to the basolateral side to assess active efflux. The cells were incubated with compound for 2 h with shaking at 37°C. Samples (50 µL) were retrieved from the recipient wells and mixed with 150 µL acetonitrile (ACN) and internal standard (1:1 of 200 ng/mL chloridazon:enalapril). Samples were pelleted at 4,000 × g and the supernatant was analyzed by liquid-chromatography/tandem mass spectrometry (LCMS/MS) analyses. […]. Active efflux was determined by Papp B/A/Papp A/B.
Tight junction formation was assessed by lucifer yellow permeation immediately following sample retrieval. Briefly, lucifer yellow (10 µM) was added to the apical wells and HBSS was added to the basolateral wells for 1 h with shaking at 37°C, after which sample was collected from the basolateral side and read on a Biotek Synergy HTX multi-mode plate reader with 485/20 excitation and 520/20 emission filters defined by the Center Wavelength/band-pass values. The percent lucifer yellow fluorescence was determined by subtracting the HBSS relative fluorescent units (RFU) from the sample RFU and normalizing to the lucifer yellow positive control RFU. Lucifer yellow permeation was determined to be acceptable if ≤3%.

Microsome stability = type: in vitro ADME, human
CYP2C9 = target: T2, CYP2C9 (Homo sapiens, UniProt P11712); assay: Cytochrome P450 inhibition, Vivid 2C9 BOMF Green kit; type: in vitro ADME; settings: 10 µM compound
T2 construct: purchased Thermo Fisher Vivid 2C9 BOMF Green
T2 sequence (P11712 whole entry): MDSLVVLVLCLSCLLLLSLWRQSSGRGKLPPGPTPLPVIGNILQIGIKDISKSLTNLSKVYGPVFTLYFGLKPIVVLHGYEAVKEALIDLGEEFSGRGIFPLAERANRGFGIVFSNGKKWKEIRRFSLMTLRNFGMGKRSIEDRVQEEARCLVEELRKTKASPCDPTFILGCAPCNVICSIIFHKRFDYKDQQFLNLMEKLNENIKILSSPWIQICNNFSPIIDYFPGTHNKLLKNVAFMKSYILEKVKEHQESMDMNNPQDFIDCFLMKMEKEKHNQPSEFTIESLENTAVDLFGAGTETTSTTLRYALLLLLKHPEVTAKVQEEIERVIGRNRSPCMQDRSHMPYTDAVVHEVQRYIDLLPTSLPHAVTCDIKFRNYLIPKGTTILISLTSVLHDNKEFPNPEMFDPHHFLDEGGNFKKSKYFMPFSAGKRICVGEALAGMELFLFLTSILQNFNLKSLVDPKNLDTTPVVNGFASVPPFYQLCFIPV
Method: (§1) Compound inhibition of Cytochrome P (CYP) 3A4, 2C9, and 2D6 was determined using Vivid CYP450 screening kits (Thermo Fisher) according to the manufacturer’s instructions, as described previously ([27]). The kits employed were: Vivid 3A4 DBOMF Green, 2C9 BOMF Green, and 2D6 EOMCC Blue. Reactions were initiated by addition of the fluorophore-conjugated substrates with Vivid NADP^+ and were conducted at 37°C using either a Biotek Synergy HTX multi-mode plate reader with 485/20 nm excitation and 520/20 nm emission filters (green-fluorescent substrate), or a Tecan Spark plate reader with monochromator settings at 415/20 nm excitation and 460/20 nm emission (blue-fluorescent substrate) defined by the Center Wavelength/band-pass values. Substrate cleavage was detected every 60 s.
(§2) Compounds were initially screened against each enzyme at 10 µM and maximum rates of fluorescence in RFU were calculated using the Biotek Gen5 v3.11 software. Percent inhibition of experimental compound reactions was normalized to the rate to DMSO vehicle reactions. Positive controls used were: CYP3A4—ketoconazole (Sigma Aldrich), CYP2C9—sulfaphenazole (Cayman Chemical), and CYP2D6—quinidine (Fisher Scientific). […] IC50 values were determined using the four-parameter log[inhibitor] versus response algorithm in GraphPad Prism. […]

CYP3A4 = target: T3, CYP3A4 (Homo sapiens, UniProt P08684); assay: Cytochrome P450 inhibition, Vivid 3A4 DBOMF Green kit; type: in vitro ADME; settings: 10 µM compound
T3 construct: purchased Thermo Fisher Vivid 3A4 DBOMF Green
T3 sequence (P08684 whole entry): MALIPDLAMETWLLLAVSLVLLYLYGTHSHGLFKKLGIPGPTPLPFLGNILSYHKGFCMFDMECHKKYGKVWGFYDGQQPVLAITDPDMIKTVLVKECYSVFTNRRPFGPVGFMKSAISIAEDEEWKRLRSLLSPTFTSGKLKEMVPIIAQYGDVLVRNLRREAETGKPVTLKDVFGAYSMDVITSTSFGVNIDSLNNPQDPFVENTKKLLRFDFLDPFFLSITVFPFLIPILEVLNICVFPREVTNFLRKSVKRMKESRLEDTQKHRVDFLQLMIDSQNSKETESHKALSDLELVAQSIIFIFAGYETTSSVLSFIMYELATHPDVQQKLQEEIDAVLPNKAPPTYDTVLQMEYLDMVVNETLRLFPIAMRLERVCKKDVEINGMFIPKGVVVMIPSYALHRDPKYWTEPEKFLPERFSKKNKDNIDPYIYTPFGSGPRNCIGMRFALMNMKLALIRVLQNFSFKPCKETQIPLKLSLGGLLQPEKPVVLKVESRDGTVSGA
Method: as §1, §2

[5] = pH 5 (fed simulated intestinal fluid)
[6] = pH 6.5 (fasted simulated intestinal fluid)
[7] = human liver microsomes, 1 µM compound, 30 min, NADPH

Row | SMILES | HepDES19 SI (CC50/EC50) [1] | EC50 [1] [nM] | Avg Papp (PAMPA) ([2]; FeSSIF pH 5) [×10⁻⁶ cm/s] | Interpretation (PAMPA Papp) ([2]; FeSSIF pH 5) | Papp 1 (PAMPA) ([2]; FeSSIF pH 5, replicate 1) [×10⁻⁶ cm/s] | Papp 2 (PAMPA) ([2]; FeSSIF pH 5, replicate 2) [×10⁻⁶ cm/s] | Avg Papp (PAMPA) ([2]; pH 7.4) [×10⁻⁶ cm/s] | Interpretation (PAMPA Papp) ([2]; pH 7.4) | Papp 2 (PAMPA) ([2]; pH 7.4, replicate 2) [×10⁻⁶ cm/s] | Average Sol (solubility limit) [3, 5] [µM] | Sol 1 (solubility limit) ([3]; pH 5, replicate 1) [µM] | Sol 2 (solubility limit) ([3]; pH 5, replicate 2) [µM] | Average Sol (solubility limit) [3, 6] [µM] | Sol 1 (solubility limit) ([3]; pH 6.5, replicate 1) [µM] | Sol 2 (solubility limit) ([3]; pH 6.5, replicate 2) [µM] | Average Sol (solubility limit) ([3]; pH 7.4 (DMEM-F12 with 10% FBS)) [µM] | Sol 1 (solubility limit) ([3]; pH 7.4, replicate 1) [µM] | Sol 2 (solubility limit) ([3]; pH 7.4, replicate 2) [µM] | CC50 (HepDES19 cells) [nM] | Efflux Ratio (Papp B-A/A-B) (MDCK-MDR1 cells) | also measured
1 | CC(=NOCc1cccc(C)c1)c1c(C)cc(=O)n(O)c1O [Compound 1620] | 526 | 190 ± 87 | 18.9 | H (H: Papp > 1*10-6) | 22.9 | 14.9 | 1.38 | H (H: Papp > 1*10-6) | 1.38 | > 200 | > 200 | > 200 | > 200 | > 200 | > 200 | > 200 | > 200 | > 200 | > 100000 | 1.39 | Papp 1 (PAMPA) ([2]; pH 7.4, replicate 1): 1.38 ×10⁻⁶ cm/s; CYP3A4 mRNA expression increase (CYP3A4 mRNA expression): < 2 fold; Percent bound (plasma proteins): 85.8 ± 13.2%; Selectivity of HBV replication inhibition over huRNase H1 (huRNase H1 IC50 versus HBV EC50) [4]: at least 10 fold; MDCK-MDR1 Papp category, apical to basolateral (A-B) (MDCK-MDR1 cells): high (high (≥1*10^−6 cm/s)); MDCK-MDR1 Papp category, basolateral to apical (B-A) (MDCK-MDR1 cells): high (high (≥1*10^−6 cm/s)); Intrinsic clearance (Clint) rate category (Microsome stability; human liver microsomes): low (low Clint (µL/min/mg protein) rates (<8.6)); Clearance (intrinsic clearance, Clint) (Microsome stability; [7]): 7.00 µL/min/mg; Half-life (Microsome stability; [7]): >30 min
2 | CC(=NOCc1ccc(OCc2ccc3ccccc3c2)cc1)c1c(C)cc(=O)n(O)c1O [Compound 1899] | 40.7 | 1920 ± 700 | 5.61 | H (H: Papp > 1*10-6) | 6.93 | 4.29 | 1.84 | H (H: Papp > 1*10-6) | 1.08 | > 200 | > 200 | > 200 | > 200 | > 200 | > 200 | > 200 | > 200 | > 200 | 68600 ± 24300 | 2.28 and > 2 | Papp 1 (PAMPA) ([2]; PAMPA, pH 7.4): 2.28 ×10⁻⁶ cm/s; Papp 3 (PAMPA) ([2]; pH 7.4, replicate 3): 2.16 ×10⁻⁶ cm/s; Percent inhibition of CYP2C9 (CYP2C9): 46%; Percent inhibition of CYP3A4 (CYP3A4): ~ 42%; Clearance (intrinsic clearance, Clint) (Microsome stability; human, microsomes): 35.6 µL/min/mg; Half-life (Microsome stability; human, microsomes): 29.6 min

Source: PMC11784145, “Efficacy and in vitro pharmacological assessment of novel N-hydroxypyridinediones as hepatitis B virus ribonuclease H inhibitors” (Antimicrobial Agents and Chemotherapy, 2024)
